In US10233205B2, “Magnetic resonance imaging contrast agent capable of detecting hydrogen peroxide and reducing reactive oxygen species” (Auburn University, priority 2015, dated 2019):

Assays:
[1] = Metal exchange with Fe(ClO4)2 followed by UV/vis; assay type: physicochemical; settings: 0.10 mM complex + 0.10 mM Fe(ClO4)2, MeCN
Procedure: Over this time, collected UV/vis spectra (FIGS. 2 & 3) display changes in the region between 200 nm and 300 nm which are consistent with the oxidation of the quinol to a para-quinone. Past 24 h, the solution begins to turn brown, consistent with oxidation of the manganese to Mn(III) and/or Mn(IV). For the spectrophotometric analysis, the Fe(ClO4)2 solution was added to a MeCN solution containing 0.10 mM [Mn(Hptp1)(MeCN)]^2+; the mixture was scanned at 0 min (dashed red), 30 min (dashed pink), and 60 min (dashed blue). […] At 15 h, approximately 11% of the Mn(II) has been displaced by Fe(II) as indicated by data in FIG. 3.
The stability of 3 to air and adventitious metal ions was assessed primarily by UV/vis spectroscopy. […] Complex 3, however, is susceptible to metal exchange. When equimolar amounts of 3 and Fe(ClO4)2 are mixed in MeCN, 80% of the Mn(II) is replaced by Fe(II) by 3 h.

[2] = T1-weighted relaxivity (r1) on 3 T clinical MRI scanner; assay type: physicochemical; settings: 50 mM HEPES pH 7.00, 3 T

Structure (SMILES) | displacement of Mn(II) by Fe(II) ([1]; 0-60 min) | Mn(II) displaced by Fe(II) ([1]; 15 h) | r1 after addition of KO2 ([2]; 2 mM KO2) | r1 after addition of NaClO ([2]; 10 mM NaClO) | r1 of fully oxidized sensor ([2]; oxidized by DDQ)
CC#N.Cc1ccc(O)c(CN(CCN(Cc2ccccn2)Cc2ccccn2)Cc2ccccn2)c1.[Mn+2].[O-][Cl+3]([O-])([O-])[O-].[O-][Cl+3]([O-])([O-])[O-] [Complex 2, reference compound] | negligible displacement | approximately 11% | – | – | –
CC#N.O=S(=O)([O-])C(F)(F)F.O=S(=O)([O-])C(F)(F)F.[Mn+2].[O-]c1ccc(O)cc1CN(CCN(Cc1ccccn1)Cc1ccccn1)Cc1ccccn1 [Complex 1, Acetonitrilo(N-(2,5-dihydroxy-benzyl)-N,N′,N′-tris(2-pyridinylmethyl)-1,2-ethanediamine)manganese(II) triflate] | – | – | 5520 M⁻¹ s⁻¹ | 4.82 mM⁻¹ s⁻¹ | 5.56 mM⁻¹ s⁻¹
